The text below walks through data of article PMC3995882, “Antimicrobial and Immunomodulatory Activities of PR-39 Derived Peptides” (PLoS ONE, 2014).

Values after ≈ are worked out from the molar mass of the structure shown. Where a SMILES comes first, the peptide text is derived from it.

The subject of data set [1] is Enterococcus Faeceum E155. The data set is classed as cell-based. The following applies: broth dilution, 50% MHB, turbidity; range of triplicate experiments.
Data set [2] concerns E.coli K88 403. The conditions noted are these: broth dilution, 50% MHB, turbidity; range of triplicate experiments. How it is done:
Initial screening for antibacterial activity of PR-39 was performed using broth dilution assays. Bacteria were grown to mid-logarithmic phase in MHB medium. The optical density was measured and bacteria were diluted to 2×10^6 CFU/ml. Subsequently 25 µl bacteria were incubated with 25 µl peptide in polypropylene 96 wells plates and incubated at 37°C. After 3 h 200 µl MHD medium was added and samples were further incubated overnight. Minimal inhibitory concentrations (MIC) were determined by turbidity measurement of the wells.
(In broth dilution the organism is exposed to a series of concentrations in liquid medium.)

The subject of data set [3] is E. coli. Put plainly: Colony counting assay (MBC). The data set is classed as cell-based, Escherichia coli. The following applies: 3 h 37°C, 10 mM phosphate buffer pH 7.0 with 1/1000 TSB, MBC = <100 CFU/ml. The protocol:
(§1) Overnight cultures of E. coli and B. globigii were grown in TSB medium at 37°C to mid-logarithmic phase. The antimicrobial activity of the PR-39 derived peptides was tested using colony counting as described before. In short, cells were collected via centrifugation at 900×g for 10 minutes, and resuspended in 10 mM phosphate buffer, pH 7.0, containing 1/1000 TSB medium (Buffer A). Cells were further diluted to 2×10^6 CFU/ml in the same buffer. Next, 25 µl of cell suspension was mixed with an equal volume of different concentrations of peptides ranging from 0–80 µM, and incubated further for 3 hours at 37°C. Ten-fold dilutions were prepared in minimal buffer containing 1/1000 TSB medium in distilled water, and 100 µl from each dilution was spread on TSA plates (Trypton Soy Agar; Oxoid). The plates were incubated at 37°C and the number of colonies was counted 24 h later to determine the number of surviving bacteria. Minimal Bactericidal Concentration (MBC) was defined as <100 CFU/ml corresponding to the detection limit of this assay. To determine the dependence of activity of PR-39 on the energy status of the cell, E. coli was incubated 30 min at 37°C in the presence of the metabolic uncouplers 50 µM carbonyl cyanide m-chlorophenylhydrazone (CCCP), or 5 mM 2,4-dinitrophenol (DNP). Subsequently, an antimicrobial activity assay was performed as described above.

For data set [4], the system named is Bacillus Cereus ATCC 9193. Put plainly: Broth dilution assay (MIC). The data set is classed as cell-based. The conditions noted are these: 50% MHB, turbidity, range of triplicate experiments.
Data set [5] has as its system E.coli K12. The data set is described as follows: Broth dilution assay (MIC). The following applies: 50% MHB, turbidity, range of triplicate experiments. The data set is classed as cell-based, Escherichia coli.
The test system of data set [6] is Enterococcus Faecalis (ATCC 29213). The data set is described as follows: Broth dilution assay (MIC). The data set is classed as cell-based. The following applies: 50% MHB, turbidity, range of triplicate experiments.
The subject of data set [7] is Streptococcus Pyogenes (ATCC 19616). The data set is described as follows: Broth dilution assay (MIC). The data set is classed as cell-based. The conditions noted are these: 50% MHB, turbidity, range of triplicate experiments.
Data set [8] deals with serine proteases, elastase, and aminopeptidases. The conditions noted are these: cited from earlier work. An excerpt:
Current literature on PR-39 has shifted from an initial focus on antibacterial activity to potential new roles in host defence mechanisms.

The subject of data set [9] is Bacillus Globigii (TNO). The data set is classed as cell-based. The following applies: broth dilution, 50% MHB, turbidity; range of triplicate experiments.
Data set [10] has as its system E.coli ATCC25922. Put plainly: Broth dilution assay (MIC). The data set is classed as cell-based, Escherichia coli. The following applies: 50% MHB, turbidity, range of triplicate experiments.
The subject of data set [11] is Bacillus Subtilis (ATCC6633). The data set is described as follows: Broth dilution assay (MIC). The data set is classed as cell-based. The following applies: 50% MHB, turbidity, range of triplicate experiments.
Data set [12] concerns Bacillus Lichen ATCC 21424. Put plainly: Broth dilution assay (MIC). The data set is classed as cell-based, Bacillus licheniformis. The following applies: 50% MHB, turbidity, range of triplicate experiments.
The test system of data set [13] is B. globigii. The data set is classed as cell-based, Bacillus globigii. The conditions noted are these: colony counting, 3 h 37°C, 10 mM phosphate buffer pH 7.0 with 1/1000 TSB, MBC = <100 CFU/ml. The protocol: as §1
Data set [14] relates to E.coli ATCC 4157. The data set is described as follows: Broth dilution assay (MIC). The conditions noted are these: 50% MHB, turbidity, range of triplicate experiments. The data set is classed as cell-based, Escherichia coli.

Consider `CC[C@H](C)[C@H](NC(=O)[C@H](CCCNC(=N)N)NC(=O)[C@@H]1CCCN1C(=O)[C@@H]1CCCN1C(=O)[C@H](CC(C)C)NC(=O)[C@H](CCCNC(=N)N)NC(=O)[C@@H]1CCCN1C(=O)[C@@H]1CCCN1C(=O)[C@H](Cc1ccccc1)NC(=O)[C@H](Cc1ccccc1)NC(=O)[C@@H]1CCCN1C(=O)[C@@H]1CCCN1C(=O)[C@@H]1CCCN1C(=O)[C@H](CCCNC(=N)N)NC(=O)[C@@H]1CCCN1C(=O)[C@H](CCCNC(=N)N)NC(=O)[C@@H]1CCCN1C(=O)[C@H](CC(C)C)NC(=O)[C@H](Cc1ccc(O)cc1)NC(=O)[C@@H]1CCCN1C(=O)[C@@H]1CCCN1C(=O)[C@H](CCCNC(=N)N)NC(=O)[C@@H]1CCCN1C(=O)[C@H](CCCNC(=N)N)NC(=O)[C@H](CCCNC(=N)N)NC(=O)[C@@H](N)CCCNC(=N)N)C(=O)N1CCC[C@H]1C(=O)N1CCC[C@H]1C(=O)NCC(=O)N[C@@H](Cc1ccccc1)C(=O)N1CCC[C@H]1C(=O)N1CCC[C@H]1C(=O)N[C@@H](CCCNC(=N)N)C(=O)N[C@@H](Cc1ccccc1)C(=O)N1CCC[C@H]1C(=O)N1CCC[C@H]1C(=O)N[C@@H](CCCNC(=N)N)C(=O)N[C@@H](Cc1ccccc1)C(=O)N1CCC[C@H]1C(=O)O` [PR-39] (H-RRRPRPPYLPRPRPPPFFPPRLPPRIPPGFPPRFPPRFP-OH), for which the MIC in data set [1] is 1.25 to 2.5 µM; in data set [2], 1.25 to 2.5 µM; in data set [4], 5 to 20 µM; in [5], 1.25 to 2.5 µM; in data set [6] it was 10 µM (≈ 47.2 µg/mL); in [7] it was 2.5 to 5 µM. The MIC in [9] is 1.25 to 5 µM; in [10] it was 2.5 to 10 µM; in data set [11], 2.5 to 5 µM; in [12], 5 µM (≈ 23.6 µg/mL); in data set [14], 1.25 to 2.5 µM. In data set [3] (2×10^6 CFU/ml, no NaCl added), the “MBC E. coli 0 mM NaCl” value was 1.25 µM (≈ 5.9 µg/mL). The “MBC E. coli 100 mM NaCl” value in data set [3] (100 mM NaCl added) is on record as 2.5 µM (≈ 11.8 µg/mL). Further, in [8], the resistance to proteases entry was “resistant to serine proteases, elastase, and aminopeptidases”. In addition, in data set [13] (2×10^6 CFU/ml, no NaCl added), the “MBC B. globigii 0 mM NaCl” value is recorded as 2.5 µM (≈ 11.8 µg/mL). Also, the “MBC B. globigii +100 mM NaCl” value in [13] (100 mM NaCl added) turned out to be 5 µM (≈ 23.6 µg/mL).

In general, MIC refers to the smallest concentration in the dilution series that meets the test's criterion for growth inhibition.
